Test results reported in patent publication US20240189318A1, “THERAPEUTIC REGIMENS OF AN INHIBITOR OF THE ENZYMATIC ACTIVITY OF BRG1 AND BRM” (FOGHORN THERAPEUTICS INC., priority 2021, published 2024).
Where two headings read alike, the source gives them in different places.

What was measured:
CHD4 enzyme = CHD4 enzyme (Homo sapiens, UniProt Q14839); test: ADP-Glo ATPase assay, CHD4; type: biochemical; conditions: concentrations up to 200 μM (n=3)
CYP1A2 [1] = biological target: T1, CYP1A2 (Homo sapiens, UniProt P05177); test: Depletion by recombinant CYP enzyme, CYP1A2; type: in vitro ADME; design: from tissue; host or cells: pooled human liver microsomes; conditions: recombinant 1A2
T1 sequence (P05177 1-516): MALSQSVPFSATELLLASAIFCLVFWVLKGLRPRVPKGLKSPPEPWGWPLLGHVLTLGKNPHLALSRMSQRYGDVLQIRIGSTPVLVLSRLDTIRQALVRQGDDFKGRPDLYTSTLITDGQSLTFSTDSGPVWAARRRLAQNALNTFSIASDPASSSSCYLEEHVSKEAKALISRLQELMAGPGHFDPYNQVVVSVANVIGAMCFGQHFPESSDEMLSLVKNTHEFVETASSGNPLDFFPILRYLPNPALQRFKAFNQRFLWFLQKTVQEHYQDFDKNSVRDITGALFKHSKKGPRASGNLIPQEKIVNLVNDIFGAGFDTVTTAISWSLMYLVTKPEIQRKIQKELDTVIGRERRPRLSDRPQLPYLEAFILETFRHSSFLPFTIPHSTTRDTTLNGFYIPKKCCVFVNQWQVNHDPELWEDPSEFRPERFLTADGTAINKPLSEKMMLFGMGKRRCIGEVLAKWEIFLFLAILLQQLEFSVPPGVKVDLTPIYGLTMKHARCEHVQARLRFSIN

CYP2D6 = CYP2D6 (Homo sapiens, UniProt P10635); test: Depletion by recombinant CYP enzyme, CYP2D6; type: in vitro ADME; design: from tissue; host or cells: pooled human liver microsomes; conditions: recombinant 2D6
Chain of CYP2D6 (P10635 whole entry): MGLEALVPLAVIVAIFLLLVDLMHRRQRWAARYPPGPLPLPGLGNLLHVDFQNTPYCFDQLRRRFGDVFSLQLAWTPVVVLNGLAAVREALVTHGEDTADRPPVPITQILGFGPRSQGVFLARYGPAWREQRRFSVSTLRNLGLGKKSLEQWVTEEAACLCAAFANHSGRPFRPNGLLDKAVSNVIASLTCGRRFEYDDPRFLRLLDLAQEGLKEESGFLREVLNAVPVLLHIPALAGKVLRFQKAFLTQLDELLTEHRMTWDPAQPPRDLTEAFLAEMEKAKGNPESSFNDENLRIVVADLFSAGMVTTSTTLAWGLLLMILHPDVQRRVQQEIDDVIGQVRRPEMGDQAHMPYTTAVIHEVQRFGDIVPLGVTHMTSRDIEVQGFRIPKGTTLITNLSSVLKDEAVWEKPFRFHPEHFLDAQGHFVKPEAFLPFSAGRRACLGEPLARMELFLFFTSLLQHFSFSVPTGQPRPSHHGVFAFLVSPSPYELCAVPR

CYP2b1 mRNA = test: CYP mRNA expression in cultured rat hepatocytes, CYP2b1; type: in vitro ADME; conditions: 0.3 to 100 nM
CYP1a2 mRNA = test: CYP mRNA expression in cultured rat hepatocytes, CYP1a2; type: in vitro ADME; conditions: 0.3 to 100 nM
CYP3A activity = test: CYP enzyme activity in cultured human hepatocytes, CYP3A4; type: in vitro ADME
CYP3A4/5 = test: CYP enzyme inhibition in pooled human liver microsomes, CYP3A4/5; conditions: for inhibition at 10 µM / inhibition at 30 µM: Enzyme activity (% inhibition), CYP3A4/5
SBC-5 cells = test: 10-day proliferation assay, negative control cells lacking BRG1 and BRM; conditions: Homo sapiens, SBC-5, 240 h, read-out: mean IC50, cell proliferation
[2] = Bidirectional transport in MDCK control cells (passive permeability); type: in vitro ADME; conditions: dog; for Papp B→A at 1 μM / Papp B→A at 50 μM / Papp A→B at 1 μM / Papp A→B at 10 μM / Papp B→A at 10 μM / Papp A→B at 50 μM: MDCK; for Papp A→B at 10 μM / Papp B→A at 10 μM: 10 μM compound of formula (I)
MDCK control cells = test: as above; type: in vitro ADME; conditions: MDCK control cells
[3] = Depletion in Control Bactosomes and Reductase Control; type: in vitro ADME
[4] = test system: 92-1 uveal melanoma cells; test: 92-1 uveal melanoma xenograft, Example 16; type: in vivo
OATP1B3 = biological target: T2, OATP1B3 (Homo sapiens, UniProt Q9NPD5); test: Transporter inhibition in MDCK-II cells, OATP1B3; type: in vitro ADME; conditions: probe CCK-8 2 μM
T2 construct: expressed in transfected cells; host or cells: MDCK-II
T2 sequence (Q9NPD5 whole entry): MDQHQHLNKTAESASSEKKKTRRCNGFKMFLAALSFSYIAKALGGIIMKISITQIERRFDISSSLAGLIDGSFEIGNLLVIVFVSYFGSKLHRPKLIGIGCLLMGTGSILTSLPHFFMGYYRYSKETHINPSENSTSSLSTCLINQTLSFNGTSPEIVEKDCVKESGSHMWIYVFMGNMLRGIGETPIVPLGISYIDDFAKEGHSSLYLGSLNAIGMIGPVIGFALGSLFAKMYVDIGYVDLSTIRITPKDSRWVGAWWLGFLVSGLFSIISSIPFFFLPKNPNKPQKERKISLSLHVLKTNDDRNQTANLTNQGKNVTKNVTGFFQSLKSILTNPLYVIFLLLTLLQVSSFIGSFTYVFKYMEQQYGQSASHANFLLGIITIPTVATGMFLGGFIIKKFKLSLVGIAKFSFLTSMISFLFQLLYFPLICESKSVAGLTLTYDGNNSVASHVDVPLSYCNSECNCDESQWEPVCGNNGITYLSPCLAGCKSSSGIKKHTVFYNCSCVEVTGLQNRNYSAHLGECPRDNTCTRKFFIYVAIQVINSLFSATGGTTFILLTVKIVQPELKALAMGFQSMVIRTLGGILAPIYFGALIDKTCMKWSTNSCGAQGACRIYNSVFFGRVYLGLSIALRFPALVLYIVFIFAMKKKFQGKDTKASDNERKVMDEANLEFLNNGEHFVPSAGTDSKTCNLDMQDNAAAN

CYP1A2 [5] = biological target: T1, CYP1A2; test: CYP enzyme inhibition in pooled human liver microsomes, CYP1A2; conditions: for inhibition at 30 µM: human, microsomes, Enzyme activity (% inhibition), CYP1A2, probe Phenacetin
CYP2C9 = CYP2C9 (Homo sapiens, UniProt P11712); test: CYP enzyme inhibition in pooled human liver microsomes, CYP2C9; conditions: for inhibition at 30 µM: human, microsomes, Enzyme activity (% inhibition), CYP2C9, probe Diclofenac
Chain of CYP2C9 (P11712 whole entry): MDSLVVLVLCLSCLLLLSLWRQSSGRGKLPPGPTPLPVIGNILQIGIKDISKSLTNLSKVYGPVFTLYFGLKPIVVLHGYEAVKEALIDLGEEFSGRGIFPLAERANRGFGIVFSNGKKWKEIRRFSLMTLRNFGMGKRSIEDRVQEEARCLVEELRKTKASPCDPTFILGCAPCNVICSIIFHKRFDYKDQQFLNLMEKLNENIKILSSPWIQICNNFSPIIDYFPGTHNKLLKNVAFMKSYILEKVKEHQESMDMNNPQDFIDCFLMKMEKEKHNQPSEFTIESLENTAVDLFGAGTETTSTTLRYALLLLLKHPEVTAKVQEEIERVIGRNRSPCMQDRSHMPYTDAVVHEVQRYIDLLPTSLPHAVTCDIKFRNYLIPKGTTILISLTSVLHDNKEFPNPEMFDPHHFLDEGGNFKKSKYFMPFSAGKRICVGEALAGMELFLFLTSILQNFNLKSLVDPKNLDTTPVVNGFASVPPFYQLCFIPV

[6] = test system: Uveal melanoma cell lines, prostate cancer cells, acute leukemia cells, histocytic lymphoma cells; test: 3-day growth inhibition, all cell lines of Table 6; type: cell-based; conditions: 3 days
CYP2C19 mRNA = test: CYP mRNA level in cultured human hepatocytes, CYP2C19; type: in vitro ADME; conditions: tested concentrations up to 50 nM
[7] = Oral absorption in dogs, capsule; type: in vivo; conditions: administered in a capsule
CYP3A4 mRNA = test: CYP mRNA level (qRT-PCR) in cultured human hepatocytes, CYP3A4; type: in vitro ADME; conditions: 72 hours
CYP3a23 mRNA = test: CYP mRNA expression in cultured rat hepatocytes, CYP3a23; type: in vitro ADME; conditions: 0.3 to 100 nM
CYP2C19 = CYP2C19 (Homo sapiens, UniProt P33261); test: CYP enzyme inhibition in pooled human liver microsomes, CYP2C19; conditions: for inhibition at 30 µM: human, microsomes, Enzyme activity (% inhibition), CYP2C19, probe S-Mephenytoin
Chain of CYP2C19 (P33261 whole entry): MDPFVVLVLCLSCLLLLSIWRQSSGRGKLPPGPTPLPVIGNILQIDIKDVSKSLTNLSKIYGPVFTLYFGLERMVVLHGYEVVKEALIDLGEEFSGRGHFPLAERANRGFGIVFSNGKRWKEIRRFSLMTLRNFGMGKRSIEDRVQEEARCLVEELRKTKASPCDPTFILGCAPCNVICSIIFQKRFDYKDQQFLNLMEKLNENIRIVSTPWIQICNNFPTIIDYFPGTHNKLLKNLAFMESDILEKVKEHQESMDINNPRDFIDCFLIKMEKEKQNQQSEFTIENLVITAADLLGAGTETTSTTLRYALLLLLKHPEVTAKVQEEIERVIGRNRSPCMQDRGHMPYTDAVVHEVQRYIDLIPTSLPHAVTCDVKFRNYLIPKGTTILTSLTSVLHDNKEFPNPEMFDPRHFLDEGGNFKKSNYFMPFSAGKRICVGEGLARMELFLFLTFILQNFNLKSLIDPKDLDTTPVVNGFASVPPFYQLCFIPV

[8] = PHLM, concentrations up to 30 μM
[9] = human, pooled human liver microsomes, probe midazolam (1′-hydroxylation), 30 Minutes Pre-incubation with NADPH, probe Midazolam, PHLM
[10] = human, pooled human liver microsomes, probe midazolam (1′-hydroxylation), 30 Minutes Pre-incubation without NADPH, probe Midazolam, PHLM
[11] = human, pooled human liver microsomes, probe midazolam (1′-hydroxylation), No Pre-incubation, probe Midazolam, PHLM
[12] = human, pooled human liver microsomes, probe testosterone (6β-hydroxylation), 30 Minutes Pre-incubation with NADPH, probe Testosterone, PHLM
[13] = human, pooled human liver microsomes, probe testosterone (6β-hydroxylation), 30 Minutes Pre-incubation without NADPH, probe Testosterone, PHLM
[14] = human, pooled human liver microsomes, probe testosterone (6β-hydroxylation), No Pre-incubation, probe Testosterone, PHLM
[15] = BCRP assay, 50 μM compound of formula (I)
[16] = P-gp assay, 1 μM compound of formula (I)
[17] = 30 Minutes Pre-incubation with NADPH, PHLM
[18] = 30 Minutes Pre-incubation without NADPH, PHLM

Chain of CHD4 enzyme (Q14839 whole entry, species assumed): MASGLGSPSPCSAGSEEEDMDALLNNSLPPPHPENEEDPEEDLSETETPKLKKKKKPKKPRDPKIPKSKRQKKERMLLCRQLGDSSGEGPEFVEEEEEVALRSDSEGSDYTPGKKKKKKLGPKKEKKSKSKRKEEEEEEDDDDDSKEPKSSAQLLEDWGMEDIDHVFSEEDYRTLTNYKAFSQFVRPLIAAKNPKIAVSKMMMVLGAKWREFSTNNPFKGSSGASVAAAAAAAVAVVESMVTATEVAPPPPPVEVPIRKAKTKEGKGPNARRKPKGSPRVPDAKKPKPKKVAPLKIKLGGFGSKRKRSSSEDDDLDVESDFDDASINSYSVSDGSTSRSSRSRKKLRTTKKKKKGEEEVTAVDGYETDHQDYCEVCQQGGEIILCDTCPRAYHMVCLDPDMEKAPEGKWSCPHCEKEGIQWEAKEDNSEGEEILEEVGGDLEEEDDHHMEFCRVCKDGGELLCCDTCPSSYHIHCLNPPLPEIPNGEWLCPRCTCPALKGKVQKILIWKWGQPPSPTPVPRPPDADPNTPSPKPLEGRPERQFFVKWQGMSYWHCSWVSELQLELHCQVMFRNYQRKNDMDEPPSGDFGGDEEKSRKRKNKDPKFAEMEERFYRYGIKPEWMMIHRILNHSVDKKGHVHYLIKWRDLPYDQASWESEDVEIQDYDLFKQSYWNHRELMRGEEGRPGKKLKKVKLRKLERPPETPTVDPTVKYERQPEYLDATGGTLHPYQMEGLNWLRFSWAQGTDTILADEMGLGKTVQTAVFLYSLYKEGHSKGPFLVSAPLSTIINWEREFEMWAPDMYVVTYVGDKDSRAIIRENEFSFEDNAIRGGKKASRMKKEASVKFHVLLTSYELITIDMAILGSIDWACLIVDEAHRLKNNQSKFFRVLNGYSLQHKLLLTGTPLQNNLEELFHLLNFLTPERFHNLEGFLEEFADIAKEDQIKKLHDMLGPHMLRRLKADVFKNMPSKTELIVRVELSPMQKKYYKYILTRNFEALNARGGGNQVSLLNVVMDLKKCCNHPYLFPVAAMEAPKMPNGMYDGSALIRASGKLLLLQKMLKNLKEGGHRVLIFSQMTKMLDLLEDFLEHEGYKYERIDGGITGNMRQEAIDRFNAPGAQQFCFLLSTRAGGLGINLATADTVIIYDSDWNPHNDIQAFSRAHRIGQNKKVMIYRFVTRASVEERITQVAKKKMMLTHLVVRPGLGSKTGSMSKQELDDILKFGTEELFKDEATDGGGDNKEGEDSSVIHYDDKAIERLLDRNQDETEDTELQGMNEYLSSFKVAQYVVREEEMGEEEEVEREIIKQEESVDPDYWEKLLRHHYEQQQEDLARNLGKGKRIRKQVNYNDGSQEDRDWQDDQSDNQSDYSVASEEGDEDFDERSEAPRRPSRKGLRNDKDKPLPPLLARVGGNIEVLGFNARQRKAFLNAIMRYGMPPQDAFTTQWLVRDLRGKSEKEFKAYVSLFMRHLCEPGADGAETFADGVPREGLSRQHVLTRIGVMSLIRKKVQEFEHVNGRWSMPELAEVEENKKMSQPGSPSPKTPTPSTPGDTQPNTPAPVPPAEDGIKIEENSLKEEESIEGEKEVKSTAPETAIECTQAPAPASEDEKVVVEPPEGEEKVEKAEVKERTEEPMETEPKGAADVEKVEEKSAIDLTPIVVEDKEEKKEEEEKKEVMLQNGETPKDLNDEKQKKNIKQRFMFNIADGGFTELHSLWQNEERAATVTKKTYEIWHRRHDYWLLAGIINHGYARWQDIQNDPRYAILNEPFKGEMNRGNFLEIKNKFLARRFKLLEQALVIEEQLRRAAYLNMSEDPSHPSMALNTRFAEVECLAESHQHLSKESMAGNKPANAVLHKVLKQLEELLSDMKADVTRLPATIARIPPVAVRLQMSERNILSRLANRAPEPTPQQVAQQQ

## COC[C@H](NC(=O)c1ccn(S(C)(=O)=O)c1)C(=O)Nc1nc(-c2cccc(N3C[C@@H](C)O[C@@H](C)C3)n2)cs1 [compound of formula (I), N-((S)-1-((4-(6-(cis-2,6-dimethylmorpholino)pyridin-2-yl)thiazol-2-yl)amino)-3-methoxy-1-oxopropan-2-yl)-1-(methylsulfonyl)-1H-pyrrole-3-carboxamide]
CHD4 enzyme
  inhibition of the ATPase activity of the CHD4 enzyme: did not inhibit
CYP1A2 [1]; 0.1 μM
  % Remaining of Compound of Formula (I): 89.4%
CYP1A2 [1]; 1 μM
  % Remaining of Compound of Formula (I): 113%
CYP2D6; 0.1 μM
  % Remaining of Compound of Formula (I): 85.0%
CYP2D6; 1 μM
  % Remaining of Compound of Formula (I): 93.5%
CYP2b1 mRNA
  concentrations at which CYP2b1 mRNA expression was decreased ≥50%: ≥ 10 nM
CYP1a2 mRNA
  CYP1a2 mRNA expression decreased ≥50%: but not CYP1a2
CYP3A activity; 0.3 to 50 nM
  effect on CYP3A activity: minimal
CYP3A activity; concentrations 1 to 50 nM
  decrease in CYP3A activity: ≤ 32%
CYP3A4/5; PHLM
  time-dependent inhibition of CYP3A4/5: weak time-dependent inhibitor
CYP3A4/5; [8]
  direct inhibitory activity (% inhibition) toward CYP3A: < 50%
CYP3A4/5; human, pooled human liver microsomes
  IC50: > 30 µM
CYP3A4/5; human, pooled human liver microsomes, increase in CYP3A4/5 inhibition by preincubation, concentrations of ≤10 μM
  inhibition at 30 min, 10 µM: < 20%
CYP3A4/5; [9]
  inhibition at 10 µM: 25.3%
  inhibition at 30 µM: 40.2%
CYP3A4/5; [10]
  inhibition at 10 µM: 6.5%
  inhibition at 30 µM: -1%
CYP3A4/5; [11]
  inhibition at 10 µM: 18.2%
  inhibition at 30 µM: 13.6%
CYP3A4/5; [12]
  inhibition at 10 µM: 27.4%
  inhibition at 30 µM: 49.3%
CYP3A4/5; [13]
  inhibition at 10 µM: 10.5%
  inhibition at 30 µM: 20.8%
CYP3A4/5; [14]
  inhibition at 10 µM: 9.7%
  inhibition at 30 µM: 18.4%
SBC-5 cells
  IC50: > 25 µM
[2]
  Papp B→A at 1 μM: 18.2 ×10⁻⁶ cm/s
  Papp B→A at 50 μM: 18.5 ×10⁻⁶ cm/s
[2]; BCRP assay, 1 μM compound of formula (I)
  Papp A→B at 1 μM: 26 ×10⁻⁶ cm/s
[2]; BCRP assay
  Papp A→B at 10 μM: 25.4 ×10⁻⁶ cm/s
  Papp B→A at 10 μM: 20.9 ×10⁻⁶ cm/s
[2]; [15]
  Papp A→B at 50 μM: 21.3 ×10⁻⁶ cm/s
  Papp B→A at 50 μM: 19.2 ×10⁻⁶ cm/s
[2]; [16]
  Papp A→B at 1 μM: 28.8 ×10⁻⁶ cm/s
  Papp B→A at 1 μM: 21 ×10⁻⁶ cm/s
[2]; P-gp assay
  Papp A→B at 10 μM: 31 ×10⁻⁶ cm/s
  Papp B→A at 10 μM: 23.6 ×10⁻⁶ cm/s
[2]; P-gp assay, 50 μM compound of formula (I)
  Papp A→B at 50 μM: 25.5 ×10⁻⁶ cm/s
[2]; MDCK control cells, read-out: apparent permeability coefficient (Papp) (B→A) or Papp (A→B)
  Papp: ≥ 15 ×10⁻⁶ cm/s
MDCK control cells
  passive permeability: high passive permeability
[3]; Control Bactosomes, 0.1 μM
  % Remaining of Compound of Formula (I): 90.2%
[3]; Control Bactosomes, 1 μM
  % Remaining of Compound of Formula (I): 98.3%
[3]; Reductase Control, 0.1 μM
  % Remaining of Compound of Formula (I): 78.3%
[3]; Reductase Control, 1 μM
  % Remaining of Compound of Formula (I): 109%
[4]; […], once daily oral gavage
  tumor response at the highest dose: tumor regression
[4]; all treatments
  tolerability based on % body weight change: well tolerated
[4]; nude mice, 92-1 xenograft, once daily oral gavage, 3 weeks, increasing doses
  tumor growth inhibition: tumor growth inhibition in a dose-dependent manner
OATP1B3; OATP1B3, corrected, read-out: IC50 corrected for non-specific binding
  IC50: 2.68 µM
OATP1B3; OATP1B3 in MDCK-II cells, read-out: Estimated IC50 using nominal concentrations
  IC50: 11.4 µM
CYP1A2 [5]
  IC50: > 30 µM
CYP1A2 [5]; [8]
  direct inhibitory activity (% inhibition) toward CYP1A2: < 50%
CYP1A2 [5]; [17]
  inhibition at 30 µM: 11.8%
CYP1A2 [5]; [18]
  inhibition at 30 µM: 8.5%
CYP1A2 [5]; No Pre-incubation, PHLM
  inhibition at 30 µM: 11.4%
CYP2C9
  IC50: > 30 µM
CYP2C9; [8]
  direct inhibitory activity (% inhibition) toward CYP2C9: < 50%
CYP2C9; [17]
  inhibition at 30 µM: 43.5%
CYP2C9; [18]
  inhibition at 30 µM: 29.5%
CYP2C9; No Pre-incubation, PHLM
  inhibition at 30 µM: 47.1%
[6]
  growth inhibition in all the cell lines: potent growth inhibition
CYP2C19 mRNA
  effect on mRNA expression of CYP2C19: minimal effect
[7]
  oral absorption: good oral absorption
CYP3A4 mRNA
  concentrations at which CYP3A4 mRNA expression was down-regulated (>50% decrease): ≥ 1 nM
CYP3a23 mRNA
  concentrations at which CYP3a23 mRNA expression was decreased ≥50%: ≥ 10 nM
CYP2C19
  IC50: > 30 µM
CYP2C19; [8]
  direct inhibitory activity (% inhibition) toward CYP2C19: < 50%
CYP2C19; [17]
  inhibition at 30 µM: 28.1%
CYP2C19; [18]
  inhibition at 30 µM: 21.4%
CYP2C19; No Pre-incubation, PHLM
  inhibition at 30 µM: 23.1%
